Test results reported in US20070111199A1, “Compounds and method of identifying, synthesizing, optimizing and profiling protein modulators” (priority 2005, published 2007).

What follows are compounds tested against T1, Ba/F3 cells overexpressing the p210^Bcr-Abl-T315I theramutein (Homo sapiens, UniProt P00519, T315I, cells depend on it) (assay: phenoresponse-based cellular assay (cell count/viability), Ba/F3 T315I test cells). Settings: FIG. 17.
T1 construct: fused on or other part: P11274 (Breakpoint cluster region protein)
Set-up: species or system murine
`O=C(Nc1cccc(C(F)(F)F)c1)c1cccc(/C=N/Nc2ncc(F)c(N3CCOCC3)n2)n1` [Example C2-122] was tested, and the “relative potency in the phenoresponse-based assay” value was “less potent than several of the other compounds tested”.

Same assay, conditions: T315I vs control Ba/F3 cells, FIG. 1
`Oc1c(Cl)cc(Br)cc1/C=N\Nc1ncc(F)c(N2CCOCC2)n1` [Example C2] was tested, and the “concentration showing the largest specificity gap within the dose-response series” value was 500 nM.

Same assay, conditions: read-out: T315I (IC50 activity category, growth inhibition by 50%); Ba/F3 T315I cell line
For `Oc1ccccc1/C=N/Nc1ncc(F)c(N2CCOCC2)n1`, the GI50 was under 10000 nM.
With `Fc1cnc(N/N=C/c2ccccn2)nc1N1CCOCC1` the GI50 was under 1000 nM.
With `Oc1ccc(Br)cc1/C=N/Nc1ncc(F)c(N2CCOCC2)n1` the GI50 was under 1000 nM.
With `Cc1ccccc1/C=N/Nc1ncc(F)c(N2CCOCC2)n1` the GI50 was over 10000 nM.
Compound `Cc1ccc(/C=N/Nc2ncc(F)c(N3CCOCC3)n2)cc1` has a GI50 of over 10000 nM.
Compound `Fc1cnc(N/N=C/c2ccccc2)nc1N1CCOCC1` has a GI50 of over 10000 nM.
`O=C(Nc1cccc(C(F)(F)F)c1)c1cc(Cl)c(O)c(/C=N\Nc2ncc(F)c(N3CCOCC3)n2)c1` gave a GI50 of under 1000 nM.
`O=C(Nc1cccc(C(F)(F)F)c1)c1ccc(/C=N/Nc2ncc(F)c(N3CCOCC3)n2)nc1` gave a GI50 of under 1000 nM.
`Fc1cnc(N/N=C/c2ccc(-c3cccc(C(F)(F)F)c3)cn2)nc1N1CCOCC1` showed a GI50 of under 1000 nM.
Compound `Cc1cccc(Cl)c1NC(=O)C/C=N/Nc1ncc(F)c(N2CCOCC2)n1` has a GI50 of over 10000 nM.
With `Fc1cnc(N/N=C/c2ccc(Nc3ccc(N4CCOCC4)cc3)cn2)nc1N1CCOCC1` the GI50 was under 1000 nM.
`Fc1cnc(N/N=C/c2ccc(Nc3ccc(-c4ccccn4)c(Cl)c3)cn2)nc1N1CCOCC1` showed a GI50 of under 1000 nM.
In the case of `CC(C(=O)O)c1ccc(Nc2ccc(/C=N/Nc3ncc(F)c(N4CCOCC4)n3)nc2)cc1` (stereo not shown), the GI50 is reported as over 10000 nM.
`Fc1cnc(N/N=C/c2ccc(Nc3cccc(-n4ccnc4)c3)cn2)nc1N1CCOCC1` was tested, and the GI50 was under 1000 nM.
With `Cc1cc(Nc2ccc(/C=N/Nc3ncc(F)c(N4CCOCC4)n3)nc2)cc(N2CCNCC2)c1` the GI50 was under 1000 nM.
`O=C(NNc1ncc(F)c(N2CCOCC2)n1)c1ccc(Nc2cccc(C(F)(F)F)c2)cn1` showed a GI50 of under 1000 nM.
Compound `Cc1cc(Nc2cccc(C(F)(F)F)c2)ccc1/C=N/Nc1ncc(F)c(N2CCOCC2)n1` has a GI50 of over 10000 nM.
`CN(C)c1cc(O)cc(Nc2ccc(/C=N/Nc3ncc(F)c(N4CCOCC4)n3)nc2)c1` was tested, and the GI50 was under 1000 nM.
`Fc1cnc(N/N=C/c2ccc(Nc3cccc(C(F)(F)F)c3)cn2)nc1-c1cncc(-c2ccccc2)c1` was tested, and the GI50 was under 1000 nM.
Compound `Fc1cnc(N/N=C/c2ccc(Nc3cccc(C(F)(F)F)c3)cn2)nc1-c1cncc(C2CC2)c1` has a GI50 of under 10000 nM.
`Oc1cccc(Nc2cccc(Nc3ccc(/C=N/Nc4ncc(F)c(N5CCOCC5)n4)nc3)c2)c1` gave a GI50 of under 1000 nM.
For `O=C(Nc1cccc(C(F)(F)F)c1)c1cccc(/C=N/Nc2ncc(F)c(N3CCOCC3)n2)n1` [drawing 209], the GI50 was over 10000 nM.

What follows are compounds tested on P210 T315I mutant kinase domain (120 Kd) (assay: cell-free purified protein kinase autophosphorylation assay, T315I kinase domain). Settings: 20 μM cell-free, FIGS. 17 and 18.
Assay type: biochemical, human
Experimental: Each of the compounds was also tested in a standard cell free protein kinase autophosphorylation assay at a concentration of 20 μM as shown in FIG. 18.
`O=C(Nc1cccc(C(F)(F)F)c1)c1cccc(/C=N/Nc2ncc(F)c(N3CCOCC3)n2)n1` [Example C2-122] was tested, and the “relative potency, cell-free assay vs phenoresponse-based cellular assay” value was “more potent in the cell-free assay than in the phenoresponse-based cellular system”.
